From patent publication US11279691B2, “Substituted pyridine and pyrazine compounds as PDE4 inhibitors” (Dart Neuroscience LLC, priority 2013, dated 2022) come the findings set out here.

SMILES strings stand for the structures.

The target of this assay is T1, PDE4D3 (Homo sapiens, UniProt Q08499).
T1 construct: GST
T1 sequence (Q08499 1-673 isoform Q08499-2): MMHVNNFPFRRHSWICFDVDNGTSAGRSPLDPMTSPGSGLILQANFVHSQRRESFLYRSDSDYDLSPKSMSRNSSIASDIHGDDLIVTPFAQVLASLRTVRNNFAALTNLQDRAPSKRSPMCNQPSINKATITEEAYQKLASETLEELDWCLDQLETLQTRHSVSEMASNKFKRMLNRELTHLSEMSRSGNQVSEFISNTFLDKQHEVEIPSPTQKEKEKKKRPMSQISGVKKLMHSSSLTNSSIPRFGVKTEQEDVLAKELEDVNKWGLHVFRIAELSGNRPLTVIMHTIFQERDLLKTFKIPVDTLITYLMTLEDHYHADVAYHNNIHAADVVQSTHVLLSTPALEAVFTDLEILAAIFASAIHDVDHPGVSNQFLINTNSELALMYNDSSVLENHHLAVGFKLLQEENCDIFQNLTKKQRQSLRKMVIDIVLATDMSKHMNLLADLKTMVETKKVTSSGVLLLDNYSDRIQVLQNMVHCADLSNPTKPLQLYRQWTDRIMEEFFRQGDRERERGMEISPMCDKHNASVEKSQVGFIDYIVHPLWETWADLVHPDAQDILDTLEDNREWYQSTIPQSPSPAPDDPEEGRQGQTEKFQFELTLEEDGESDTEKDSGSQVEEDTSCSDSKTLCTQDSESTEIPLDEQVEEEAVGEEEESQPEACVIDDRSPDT
The assay is classed as biochemical. The settings on record: GST-tagged PDE4D3, 200 nM FAM-cAMP, 11-point dose-response; read-out: PD4d3 pEC50 (converted).
Turning to `CCOc1ncc(Cn2cnc(C(N)=O)c2)cc1-c1cccc(Cl)c1` [Example 310, 1-{[5-(3-Chlorophenyl)-6-ethoxypyridin-3-yl]methyl}-1H-imidazole-4-carboxamide], the EC50 is 100 to 1000 nM.
Next, `COc1ncc(Cc2ccc(CC(N)=O)cc2)cc1-c1ccc(F)cc1` [Example 364, 2-(4-{[5-(4-Fluorophenyl)-6-methoxypyridin-3-yl]methyl}phenyl)acetamide]: less than 100 nM.
Next, `COc1ncc(Cc2cnnc(C)c2)cc1-c1cccc(Cl)c1` [Example 305, 5-{[5-(3-Chlorophenyl)-6-methoxypyridin-3-yl]methyl}-3-methylpyridazine]: 100 to 1000 nM; `COc1ncc(Cn2nnnc2CO)cc1-c1ccc(F)c(F)c1` [Example 384, (1-{[5-(3,4-Difluorophenyl)-6-methoxypyridin-3-yl]methyl}-1H-1,2,3,4-tetrazol-5-yl)methanol]: 1000 to 10000 nM; `CCOc1ncc(Cn2nnc(C)n2)cc1-c1ccc(F)cc1` [Example 392, 2-Ethoxy-3-(4-fluorophenyl)-5-[(5-methyl-2H-1,2,3,4-tetrazol-2-yl)methyl]pyridine]: less than 100 nM.
Regarding `CCOc1ncc(Cn2cnc(CO)n2)cc1-c1ccnc(C(F)(F)F)c1` [Example 339, [1-({6-Ethoxy-5-[2-(trifluoromethyl)pyridin-4-yl]pyridin-3-yl}methyl)-1H-1,2,4-triazol-3-yl]methanol], the EC50 is 1000 to 10000 nM.
Next, `CCOc1ncc(Cn2cnc(CO)n2)cc1-c1cccc(F)c1` [Example 341, (1-{[6-Ethoxy-5-(3-fluorophenyl)pyridin-3-yl]methyl}-1H-1,2,4-triazol-3-yl)methanol]: 100 to 1000 nM; `CCOc1ncc(Cn2cc(CO)cn2)cc1-c1cccc(Cl)c1` [Example 273, (1-{[5-(3-Chlorophenyl)-6-ethoxypyridin-3-yl]methyl}-1H-pyrazol-4-yl)methanol]: 100 to 1000 nM.
For the compound `COc1ncc(Cc2cnc(N)nc2)cc1-c1ccc(F)cc1` [Example 360, 5-{[5-(4-Fluorophenyl)-6-methoxypyridin-3-yl]methyl}pyrimidin-2-amine], the EC50 was less than 100 nM.
On to `NC(=O)Cc1ncn(Cc2cnc(OC(F)F)c(-c3cccc(Cl)c3)c2)n1` [Example 372, 2-(1-{[5-(3-Chlorophenyl)-6-(difluoromethoxy)pyridin-3-yl]methyl}-1H-1,2,4-triazol-3-yl)acetamide], for which the EC50 is less than 100 nM.
Next, `COc1cc(-c2cc(Cc3cnc(N)nc3)cnc2OC)ccc1F` [Example 354, 5-{[5-(4-Fluoro-3-methoxyphenyl)-6-methoxypyridin-3-yl]methyl}pyrimidin-2-amine]: 100 to 1000 nM.
The result for `COc1ncc(Cc2cnc(C(N)=O)nc2)cc1-c1ccc(F)cc1` [Example 374, 5-{[5-(4-Fluorophenyl)-6-methoxypyridin-3-yl]methyl}pyrimidine-2-carboxamide] reads 100 to 1000 nM; that for `CCOc1ncc(Cn2c(CO)cnc2C)cc1-c1cccc(Cl)c1` [Example 319, (1-{[5-(3-Chlorophenyl)-6-ethoxypyridin-3-yl]methyl}-2-methyl-1H-imidazol-5-yl)methanol], 100 to 1000 nM; that for `CCOc1ncc(Cn2nnnc2C)cc1-c1ccc(F)c(Cl)c1` [Example 398, 3-(3-Chloro-4-fluorophenyl)-2-ethoxy-5-[(5-methyl-1H-1,2,3,4-tetrazol-1-yl)methyl]pyridine], less than 100 nM.
The result for `Cc1nc(CO)cn1Cc1cnc(OC(F)F)c(-c2cccc(Cl)c2)c1` [Example 321, (1-{[5-(3-Chlorophenyl)-6-(difluoromethoxy)pyridin-3-yl]methyl}-2-methyl-1H-imidazol-4-yl)methanol] reads 100 to 1000 nM; that for `CCOc1cnc(Cc2cnc(OC)c(-c3cccc(Cl)c3)c2)cn1` [Example 289, 2-((5-(3-Chlorophenyl)-6-methoxypyridin-3-yl)methyl)-5-ethoxypyrazine], 100 to 1000 nM.
For `COc1ncc(Cc2cnc(OCC(C)(C)O)nc2)cc1-c1cccc(Cl)c1` [Example 318, 1-[(5-{[5-(3-Chlorophenyl)-6-methoxypyridin-3-yl]methyl}pyrimidin-2-yl)oxy]-2-methylpropan-2-ol], the EC50 is 1000 to 10000 nM.
For the compound `CCOc1ncc(Cn2nnnc2C)cc1-c1ccnc(OC(F)F)c1` [Example 396, 3-[2-(Difluoromethoxy)pyridin-4-yl]-2-ethoxy-5-[(5-methyl-1H-1,2,3,4-tetrazol-1-yl)methyl]pyridine], the EC50 was less than 100 nM.
In the case of `COc1ncc(Cn2cnc(CO)n2)cc1-c1cccc(Cl)c1` [Example 336, (1-{[5-(3-Chlorophenyl)-6-methoxypyridin-3-yl]methyl}-1H-1,2,4-triazol-3-yl)methanol], the EC50 is less than 100 nM.
The result for `COc1ncc(Cc2cnc(C)cn2)cc1-c1cccc(Cl)c1` [Example 377, 2-{[5-(3-Chlorophenyl)-6-methoxypyridin-3-yl]methyl}-5-methylpyrazine] reads less than 100 nM; that for `CCOc1ncc(Cn2cnc(CO)n2)cc1-c1cccc(OC(F)(F)F)c1` [Example 333, [1-({6-Ethoxy-5-[3-(trifluoromethoxy)phenyl]pyridin-3-yl}methyl)-1H-1,2,4-triazol-3-yl]methanol], 100 to 1000 nM.
The result for `CCOc1ncc(Cn2cc(CO)nc2C)cc1-c1cccc(Cl)c1` [Example 326, (1-{[5-(3-Chlorophenyl)-6-ethoxypyridin-3-yl]methyl}-2-methyl-1H-imidazol-4-yl)methanol] reads less than 100 nM; that for `CCOc1ncc(Cn2cnc(CO)n2)cc1-c1cccc(N(C)C)c1` [Example 335, [1-({5-[3-(Dimethylamino)phenyl]-6-ethoxypyridin-3-yl}methyl)-1H-1,2,4-triazol-3-yl]methanol], 1000 to 10000 nM; that for `COc1ncc(Cn2nnnc2CO)cc1-c1ccc(Cl)c(F)c1` [Example 386, (1-{[5-(4-Chloro-3-fluorophenyl)-6-methoxypyridin-3-yl]methyl}-1H-1,2,3,4-tetrazol-5-yl)methanol], 1000 to 10000 nM.
`COc1ncc(Cc2cnc(N)cn2)cc1-c1ccc(F)c(Cl)c1` [Example 288, 5-((5-(3-Chloro-4-fluorophenyl)-6-methoxypyridin-3-yl)methyl)pyrazin-2-amine]: the EC50 was less than 100 nM.
In the case of `CCOc1ncc(Cn2nnnc2C)cc1-c1ccc(Cl)c(F)c1` [Example 397, 3-(4-Chloro-3-fluorophenyl)-2-ethoxy-5-[(5-methyl-1H-1,2,3,4-tetrazol-1-yl)methyl]pyridine], the EC50 was 100 to 1000 nM.
As to `COc1ncc(Cc2cnc(C(N)=O)nc2)cc1-c1ccc(F)c(Cl)c1` [Example 282, 5-{[5-(3-Chloro-4-fluorophenyl)-6-methoxypyridin-3-yl]methyl}pyrimidine-2-carboxamide], the EC50 was 100 to 1000 nM.
For `CCOc1ncc(Cn2cnc(CO)n2)cc1-c1cccc(OC)c1` [Example 327, (1-{[6-Ethoxy-5-(3-methoxyphenyl)pyridin-3-yl]methyl}-1H-1,2,4-triazol-3-yl)methanol], the EC50 was less than 100 nM.
Next, `CCOc1ncc(Cn2cnc(CO)n2)cc1-c1cc(F)cc(F)c1` [Example 338, (1-{[5-(3,5-Difluorophenyl)-6-ethoxypyridin-3-yl]methyl}-1H-1,2,4-triazol-3-yl)methanol]: 100 to 1000 nM.
Next, `COc1ncc(Cc2cnc(N3CC(O)C3)nc2)cc1-c1cccc(Cl)c1` [Example 390, 1-(5-{[5-(3-Chlorophenyl)-6-methoxypyridin-3-yl]methyl}pyrimidin-2-yl)azetidin-3-ol]: 100 to 1000 nM.
The result for `COc1ncc(Cc2cnc(N3CCOCC3)nc2)cc1-c1cccc(Cl)c1` [Example 292] reads 1000 to 10000 nM.
As to `CCOc1ncc(Cn2nc(N)cc2C)cc1-c1cccc(Cl)c1` [Example 317, 1-{[5-(3-Chlorophenyl)-6-ethoxypyridin-3-yl]methyl}-5-methyl-1H-pyrazol-3-amine], the EC50 was 100 to 1000 nM.
For `COc1ncc(Cc2cnc(C#N)nc2)nc1-c1cccc(OC(F)F)c1` [Example 107, 5-({6-[3-(Difluoromethoxy)phenyl]-5-methoxypyrazin-2-yl}methyl)pyrimidine-2-carbonitrile], the EC50 was 100 to 1000 nM.
With `COc1ncc(Cn2nc(CO)cc2C)cc1-c1ccnc(OC(F)F)c1` [Example 316, [1-({5-[2-(Difluoromethoxy)pyridin-4-yl]-6-methoxypyridin-3-yl}methyl)-5-methyl-1H-pyrazol-3-yl]methanol], the EC50 is 100 to 1000 nM.
Next, `CCOc1ccc(Cc2cnc(OC)c(-c3cccc(Cl)c3)c2)nc1` [Example 286, 3-(3-Chlorophenyl)-5((5-ethoxypyridin-2-yl)methyl)-2-methoxy pyridine]: more than 10000 nM.
The result for `CCOc1ncc(Cn2nc(C)cc2CO)cc1-c1cccc(Cl)c1` [Example 320, (1-{[5-(3-Chlorophenyl)-6-ethoxypyridin-3-yl]methyl}-3-methyl-1H-pyrazol-5-yl)methanol] reads more than 10000 nM.
As for `CCOc1ncc(Cn2cc(C(F)F)nc2C)nc1-c1cccc(Cl)c1` [Example 403, 3-(3-Chlorophenyl)-5-{[4-(difluoromethyl)-2-methyl-1H-imidazol-1-yl]methyl}-2-ethoxypyrazine], the EC50 is 100 to 1000 nM.
The result for `COc1ncc(Cc2cnc(CC(N)=O)nc2)cc1-c1ccc(Cl)c(F)c1` [Example 366, 2-(5-{[5-(4-Chloro-3-fluorophenyl)-6-methoxypyridin-3-yl]methyl}pyrimidin-2-yl)acetamide] reads 100 to 1000 nM.
The result for `CCOc1ncc(Cn2cnc(CO)n2)cc1-c1ccc(Cl)c(Cl)c1` [Example 330, (1-{[5-(3,4-Dichlorophenyl)-6-ethoxypyridin-3-yl]methyl}-1H-1,2,4-triazol-3-yl)methanol] reads 100 to 1000 nM; that for `Cc1nc(CO)cn1Cc1cnc(OCC(F)F)c(-c2cccc(Cl)c2)c1` [Example 406, (1-{[5-(3-Chlorophenyl)-6-(2,2-difluoroethoxy)pyridin-3-yl]methyl}-2-methyl-1H-imidazol-4-yl)methanol], less than 100 nM.
On to `CCOc1ncc(Cn2cnc(CO)n2)cc1-c1cncc(Cl)c1` [Example 329, (1-{[5-(5-Chloropyridin-3-yl)-6-ethoxypyridin-3-yl]methyl}-1H-1,2,4-triazol-3-yl)methanol], for which the EC50 is 1000 to 10000 nM.
